Legend:
[1] = test system: db/db mice (type-II diabetes model mice); test: Test Example 2: hemoglobin A1c lowering action compared with a clinical antidiabetic drug, 22-day oral administration; format: in vivo; settings: male db/db mice; for Hemoglobin A1c relative levels (%) 23th day from the administration: oral 1 mL once a day for 22 days (test samples 1 μg/mL; control sample 2 7.5 μg/mL pioglitazone hydrochloride), negative sample = 100; for decrease in hemoglobin A1c level in comparison with the negative sample: oral once a day, 23rd day
Method: Six-week old male db/db mice (purchased from Clea Japan, Inc.) were used as type-II diabetes model mice. These mice were divided into groups, each consisting of 7 animals. Each test sample was dissolved in DMSO, and the concentration was adjusted to 1 μg/mL with physiological saline. The final DMSO concentration was adjusted to 0.2%. […] Further, as a control sample 2, ACTOS® tablets (Takeda Pharmaceutical Co., Ltd.) were ground in a mortar and dissolved in physiological saline so that the concentration of pioglitazone hydrochloride as the active ingredient should become 7.5 μg/mL.

[2] = test system: db/db mice (type-II diabetes model mice); test: Test Example 1: hemoglobin A1c lowering action and hyperglycemic condition improving effect, 40-day oral administration; format: in vivo; settings: male db/db mice; for changes over time in random blood glucose levels / changes over time in fasting blood glucose levels / Hemoglobin A1c relative levels (%) 35th day from the administration: oral 1 mL of 1 μg/mL once a day; for changes over time in random blood glucose levels / changes over time in fasting blood glucose levels: 40 consecutive days; for changes over time in random blood glucose levels: FIG. 1; for changes over time in fasting blood glucose levels: after 15 hours of fasting, FIG. 2; for Hemoglobin A1c relative levels (%) 35th day from the administration: negative sample = 100
Method: This test was performed in order to evaluate the hemoglobin A1c lowering action and the hyperglycemic condition improving effect of the compounds of the present invention.
The compound 2 (4-methylcholest-7-en-3-ol), compound 3 (4-methylergost-7-en-3-ol) and compound 4 (4-methylstigmast-7-en-3-ol) produced in Preparation Example 1 mentioned above were used as test samples 1, 2 and 3, respectively.
Six-week old male db/db mice (purchased from Clea Japan, Inc.) were used as type-II diabetes model mice. These mice were divided into groups, each consisting of 7 animals. Each test sample was dissolved in DMSO, and the concentration was adjusted to 1 μg/mL with physiological saline. The final DMSO concentration was adjusted to 0.2%. […] The type-II diabetes model mice were orally administered with 1 mL of any of the test sample solutions once a day everyday with a sonde for 40 consecutive days. Further, β-sitosterol (Tama Biochemical Co., Ltd.) was administered to the model mice as a control sample 1. Fasting blood glucose levels and random blood glucose levels were measured over time by using Antisense II (Bayer-Sankyo Co., Ltd.). The fasting blood glucose levels were measured after 15 hours of fasting. Further, on the 35th day from the start of the administration, hemoglobin A1c levels were measured by using DCA 2000 (Bayer-Sankyo Co., Ltd.).

CC(C)CCCC(C)C1CCC2C3=CCC4C(C)C(O)CCC4(C)C3CCC21C (stereo not shown) [test sample 1, 4-methylcholest-7-en-3-ol]
Hemoglobin A1c relative levels (%) 23th day from the administration [1]: 89.9 ± 9.0%
decrease in hemoglobin A1c level in comparison with the negative sample [1]: about 11%
changes over time in random blood glucose levels [2]: effect of suppressing the increase in blood glucose levels was clearly observed
changes over time in fasting blood glucose levels [2]: effect of suppressing the increase in blood glucose levels was clearly observed
Hemoglobin A1c relative levels (%) 35th day from the administration ([2]; 35th day): 80.2 ± 19.2%

CC(C)C(C)CCC(C)C1CCC2C3=CCC4C(C)C(O)CCC4(C)C3CCC21C (stereo not shown) [test sample 2, 4-methylergost-7-en-3-ol]
Hemoglobin A1c relative levels (%) 23th day from the administration [1]: 91.0 ± 6.7%
decrease in hemoglobin A1c level in comparison with the negative sample [1]: about 11%
changes over time in random blood glucose levels [2]: effect of suppressing the increase in blood glucose levels was clearly observed
changes over time in fasting blood glucose levels [2]: effect of suppressing the increase in blood glucose levels was clearly observed
Hemoglobin A1c relative levels (%) 35th day from the administration ([2]; 35th day): 82.7 ± 21.0%

CC[C@H](CC[C@@H](C)[C@H]1CC[C@H]2[C@@H]3CC=C4C[C@@H](O)CC[C@]4(C)[C@H]3CC[C@]12C)C(C)C [control sample 1, β-sitosterol, reference compound]
changes over time in random blood glucose levels [2]: rapid increases were observed
changes over time in fasting blood glucose levels [2]: rapid increases were observed
Hemoglobin A1c relative levels (%) 35th day from the administration ([2]; 35th day): 94.8 ± 8.5%
decrease in hemoglobin A1c level in comparison with the negative sample ([2]; oral once a day, 35th day): about 0.5%
hemoglobin A1c lowering effect (in words) ([2]; oral once a day, 35th day): almost no hemoglobin A1c lowering effect was observed

CCC(CCC(C)C1CCC2C3=CCC4C(C)C(O)CCC4(C)C3CCC21C)C(C)C (stereo not shown) [test sample 3, 4-methylstigmast-7-en-3-ol]
Hemoglobin A1c relative levels (%) 23th day from the administration [1]: 88.8 ± 9.0%
changes over time in random blood glucose levels [2]: effect of suppressing the increase in blood glucose levels was clearly observed
changes over time in fasting blood glucose levels [2]: effect of suppressing the increase in blood glucose levels was clearly observed
Hemoglobin A1c relative levels (%) 35th day from the administration ([2]; 35th day): 77.8 ± 12.2%

— patent US8338403B2, “Drug for improving hyperglycemia” (Morinaga Milk Industry Co., Ltd., priority 2004, dated 2012)
